# Assay results published in patent US6703403B2, “Method for improving pharmacokinetics” (Abbott Laboratories, priority 1995, dated 2004).
# Columns and labels:
# [1] = Pharmacokinetics of HIV protease inhibitors in rats, alone vs. in combination with ritonavir; type: in vivo; details: rat, po, 10 mg/kg; for AUC(0-t): read-out: AUC (0-8 h)
# Method: Rats (male, Sprague-Dawley derived, 0.3-0.45 kg) were fasted overnight prior to dosing, but were permitted water ad libitum. […] The solutions, administered orally by gavage to a group of rats at a dose volume of 2 ml/kg, provided a 10 mg/kg dose of each compound. […] The plasma was separated from the red cells by centrifugation and frozen (−30° C.) until analysis. […] The peak plasma concentration (Cmax) and time to peak plasma concentration (Tmax) for each rat were obtained directly from the plasma concentration data. The area under the curve was calculated by the trapezoidal method over the time course of the study. The plasma elimination half life was obtained from NONLIN84 or from a log-linear regression of the terminal plasma concentrations as a function of time after dosing. Each combination was evaluated in a group containing at least three rats; the values reported are averages for each group of animals. The data obtained from the combination was compared to data obtained from a separate group of rats which received a single, separate dose of the compound under evaluation.
# [2] = Pharmacokinetics of clarithromycin in humans, alone vs. in combination with ritonavir; type: in vivo; details: oral, healthy human volunteers, 500 mg every 12 hours, single agent, day four of dosing, plasma
# Source text: Blood samples were collected on day four of dosing for HPLC determination of plasma concentrations of clarithromycin. Below in Table 2 are shown the results from the pharmacokinetic experiments with clarithromycin in humans.
# [3] = male, Sprague-Dawley, plasma, oral gavage 10 mg/kg, compound administered as a single agent, plasma
# [4] = male, Sprague-Dawley, plasma, oral gavage 10 mg/kg, compound administered as a single agent, plasma, read-out: Cmax
# [5] = male, Sprague-Dawley, plasma, oral gavage 10 mg/kg, compound administered as a single agent, plasma, read-out: Tmax
# [6] = male, Sprague-Dawley, plasma, oral gavage 10 mg/kg, dosed in combination with ritonavir 10 mg/kg, plasma
# [7] = male, Sprague-Dawley, plasma, oral gavage 10 mg/kg, dosed in combination with ritonavir 10 mg/kg, plasma, read-out: Cmax
# [8] = male, Sprague-Dawley, plasma, oral gavage 10 mg/kg, dosed in combination with ritonavir 10 mg/kg, plasma, read-out: Tmax
structure (smiles),measurement,setting,value
Cc1c(O)cccc1C(=O)NC(CSc1ccccc1)C(O)CN1CC2CCCCC2CC1C(=O)NC(C)(C)C (centres unmarked) [AG1343],AUC(0-t),[1]; [3],1140 ng·h/mL
same,Cmax,[1]; [4],400 ng/mL
same,Tmax,[1]; [5],45 min
same,AUC(0-t),[1]; [6],11900 ng·h/mL
same,Cmax,[1]; [7],1810 ng/mL
same,Tmax,[1]; [8],240 min
"CC(C)[C@H](NC(=O)N(C)Cc1ccccn1)C(=O)N[C@@H](Cc1ccccc1)[C@H](O)[C@H](O)[C@H](Cc1ccccc1)NC(=O)[C@@H](NC(=O)N(C)Cc1ccccn1)C(C)C [Compound A-77003, (2S,3R,4S,5S)-2,5-Di-(N-((N-methyl)-N-((2-pyridinyl)methyl)amino)carbonylvalinylamino)-3,4-dihydroxy-1,6-diphenyl hexane]",AUC(0-t),[1]; [3],25 ng·h/mL
same,Cmax,[1]; [4],70 ng/mL
same,Tmax,[1]; [5],15 min
same,AUC(0-t),[1]; [6],1390 ng·h/mL
same,Cmax,[1]; [7],960 ng/mL
same,Tmax,[1]; [8],40.2 min
CC(C)[C@H](NC(=O)OCc1ccccn1)C(=O)N[C@@H](Cc1ccccc1)[C@@H](O)C[C@H](Cc1ccccc1)NC(=O)OCc1cccnc1 [Compound A-80987],AUC (0-8 h),[1]; in vivo,1450 ng·h/mL
same,Cmax,[1]; in vivo,2420 ng/mL
same,Tmax,[1]; in vivo,15 min
"CC(C)(C)NC(=O)[C@@H]1CN(Cc2cccnc2)CCN1C[C@@H](O)C[C@@H](Cc1ccccc1)C(=O)N[C@H]1c2ccccc2C[C@H]1O [MK-639, N-(2(R)-hydroxy-1 (S)-indanyl)-2(R)-phenylmethyl-4(S)-hydroxy-5-(1-(4-(3-pyridylmethyl)-2(S)-N′-(t-butylcarboxamido)-piperazinyl))-pentaneamide]",AUC (0-8 h),"[1]; male, Sprague-Dawley, in vivo",810 ng·h/mL
same,Tmax,"[1]; male, Sprague-Dawley, in vivo",30 min
same,Cmax,"[1]; male, Sprague-Dawley, in vivo, Cmax",1030 ng/mL
"CC(C)(C)NC(=O)[C@@H]1C[C@@H]2CCCC[C@@H]2CN1C[C@@H](O)[C@H](Cc1ccccc1)NC(=O)[C@H](CC(N)=O)NC(=O)c1ccc2ccccc2n1 [Saquinavir, N-tert-butyl-decahydro-2-[2(R)-hydroxy-4-phenyl-3(S)-[[N-(2-quinolylcarbonyl)-L-asparaginyl]amino]butyl]-(4aS, 8aS)-isoquinoline-3(S)-carboxamide]",AUC (0-8 h),"[1]; male, Sprague-Dawley, in vivo",29 ng·h/mL
same,Cmax,"[1]; male, Sprague-Dawley, in vivo",80 ng/mL
same,Tmax,"[1]; male, Sprague-Dawley, in vivo",10.8 min
CC(C)CN(CC(O)C(Cc1ccccc1)NC(=O)OC1CCOC1)S(=O)(=O)c1ccc(N)cc1 (centres unmarked) [VX-478],AUC(0-t),"[1]; male, Sprague-Dawley, in vivo, oral gavage 10 mg/kg, compound administered as a single agent, plasma",1690 ng·h/mL
same,Cmax,"[1]; male, Sprague-Dawley, in vivo, oral gavage 10 mg/kg, compound administered as a single agent, plasma, read-out: Cmax",1610 ng/mL
same,Tmax,"[1]; male, Sprague-Dawley, in vivo, oral gavage 10 mg/kg, compound administered as a single agent, plasma, read-out: Tmax",25.2 min
same,AUC(0-t),"[1]; male, Sprague-Dawley, in vivo, oral gavage 10 mg/kg, dosed in combination with ritonavir 10 mg/kg, plasma",13500 ng·h/mL
same,Cmax,"[1]; male, Sprague-Dawley, in vivo, oral gavage 10 mg/kg, dosed in combination with ritonavir 10 mg/kg, plasma, read-out: Cmax",2880 ng/mL
same,Tmax,"[1]; male, Sprague-Dawley, in vivo, oral gavage 10 mg/kg, dosed in combination with ritonavir 10 mg/kg, plasma, read-out: Tmax",90 min
CC[C@H]1OC(=O)[C@H](C)[C@@H](O[C@H]2C[C@@](C)(OC)[C@@H](O)[C@H](C)O2)[C@H](C)[C@@H](O[C@@H]2O[C@H](C)C[C@H](N(C)C)[C@H]2O)[C@](C)(OC)C[C@@H](C)C(=O)[C@H](C)[C@@H](O)[C@]1(C)O [clarithromycin],Cmax,[2],3930 ng/mL
same,AUC(0-t),[2]; read-out: AUC (0-24 h),49000 ng·h/mL
